Experimental data: ChEMBL document CHEMBL5260810, “Inhibition of bromodomain-containing protein 9 for the prevention of epigenetically-defined drug resistance” (Bioorg Med Chem Lett, 2017)

Legend:
COLO-680N = experiment: Cytotoxicity against human COLO-680N cells measured after 8 days; format: functional, cell-based; details: 192 h
SNU-387 = experiment: Cytotoxicity against human SNU-387 cells measured after 8 days; format: functional, cell-based; details: SNU-387, 192 h
[1] = Cytotoxicity against human OCI-M1 cells measured after 8 days; format: functional, cell-based; details: OCI-M1, 192 h
[2] = Cytotoxicity against human HuH-1 cells measured after 8 days; format: functional, cell-based; details: HuH-1, 192 h
[3] = Cytotoxicity against human SKG-IIIb cells measured after 8 days; format: functional, cell-based; details: 192 h
MC-38 = experiment: Cytotoxicity against mouse MC38 ovalbumin cells measured after 8 days; format: functional, cell-based; details: MC-38, 192 h
Ca-Ski = experiment: Cytotoxicity against human Ca-Ski cells measured after 8 days; format: functional, cell-based; details: 192 h
[4] = Cytotoxicity against human NCE-G 22 cells measured after 8 days; format: functional, cell-based; details: NCE-G 22, 192 h
JIYOYE = experiment: Cytotoxicity against human JIYOYE cells measured after 8 days; format: functional, cell-based; details: 192 h
SK-N-AS = experiment: Cytotoxicity against human SK-N-AS cells measured after 8 days; format: functional, cell-based; details: 192 h
[5] = Cytotoxicity against human SUM52PE cells measured after 8 days; format: functional, cell-based; details: 192 h
[6] = Cytotoxicity against human 59M cells measured after 8 days; format: functional, cell-based; details: 192 h
[7] = Cytotoxicity against human COV413A cells measured after 8 days; format: functional, cell-based; details: 192 h
[8] = Cytotoxicity against human UKE-1 cells measured after 8 days; format: functional, cell-based; details: UKE1, 192 h
CAPAN-1 = experiment: Cytotoxicity against human CAPAN-1 cells measured after 8 days; format: functional, cell-based; details: CAPAN-1, 192 h
CGTH-W-1 = experiment: Cytotoxicity against human CGTH-W-1 cells measured after 8 days; format: functional, cell-based; details: CGTH-W-1, 192 h
[9] = Cytotoxicity against human PE/CA-PJ15 cells measured after 8 days; format: functional, cell-based; details: PE/CA-PJ15, 192 h
SK-N-SH = experiment: Cytotoxicity against human SK-N-SH cells measured after 8 days; format: functional, cell-based; details: 192 h
SNU-16 = experiment: Cytotoxicity against human SNU-16 cells measured after 8 days; format: functional, cell-based; details: SNU-16, 192 h
CHL-1 = experiment: Cytotoxicity against human CHL-1 cells measured after 8 days; format: functional, cell-based; details: CHL-1, 192 h
OVCAR-4 = experiment: Cytotoxicity against human OVCAR-4 cells measured after 8 days; format: functional, cell-based; details: OVCAR-4, 192 h
OCI-Ly10 = experiment: Cytotoxicity against human OCI-Ly10 cells measured after 8 days; format: functional, cell-based; details: OCI-Ly10, 192 h
COR-L279 = experiment: Cytotoxicity against human COR-L279 cells measured after 8 days; format: functional, cell-based; details: COR-L279, 192 h
SNU-423 = experiment: Cytotoxicity against human SNU-423 cells measured after 8 days; format: functional, cell-based; details: SNU-423, 192 h
EFM-19 = experiment: Cytotoxicity against human EFM-19 cells measured after 8 days; format: functional, cell-based; details: EFM-19, 192 h
OVCAR-8 = experiment: Cytotoxicity against human OVCAR-8 cells measured after 8 days; format: functional, cell-based; details: OVCAR-8, 192 h
C-33-A = experiment: Cytotoxicity against human C-33-A cells measured after 8 days; format: functional, cell-based; details: 192 h
NALM-6 = experiment: Cytotoxicity against human NALM-6 cells measured after 8 days; format: functional, cell-based; details: NALM-6, 192 h
B16-F1 = experiment: Cytotoxicity against mouse B16-F1 cells measured after 8 days; format: functional, cell-based; details: B16-F1, 192 h
[10] = Cytotoxicity against human COLO 818 cells measured after 8 days; format: functional, cell-based; details: COLO 818, 192 h
NCI-H716 = experiment: Cytotoxicity against human NCI-H716 cells measured after 8 days; format: functional, cell-based; details: NCI-H716, 192 h
GI-1 = experiment: Cytotoxicity against human GI-1 cells measured after 8 days; format: functional, cell-based; details: GI-1, 192 h
[11] = Cytotoxicity against human Kelly cells measured after 8 days; format: functional, cell-based; details: 192 h
[12] = Cytotoxicity against human KR7110 cells measured after 8 days; format: functional, cell-based; details: KR7110, 192 h
RMG-I = experiment: Cytotoxicity against human RMG-I cells measured after 8 days; format: functional, cell-based; details: 192 h
BFTC-909 = experiment: Cytotoxicity against human BFTC-909 cells measured after 8 days; format: functional, cell-based; details: BFTC-909, 192 h
[13] = molecular target: Serine/threonine-protein kinase PLK1 (Homo sapiens) (UniProt P53350); experiment: Inhibition of PLK1 (unknown origin) at 1 uM relative to control
[14] = Cytotoxicity against human TC71 cells measured after 8 days; format: functional, cell-based; details: TC-71, 192 h
RCM-1 = experiment: Cytotoxicity against human RCM-1 cells measured after 8 days; format: functional, cell-based; details: RCM-1, 192 h
SW626 = experiment: Cytotoxicity against human SW626 cells measured after 8 days; format: functional, cell-based; details: SW626, 192 h
LN-229 = experiment: Cytotoxicity against human LN-229 cells measured after 8 days; format: functional, cell-based; details: LN-229, 192 h
[15] = Cytotoxicity against human VMRC-RCW cells measured after 8 days; format: functional, cell-based; details: 192 h
[16] = Cytotoxicity against human SNU-668 cells measured after 8 days; format: functional, cell-based; details: SNU668, 192 h
SK-N-FI = experiment: Cytotoxicity against human SK-N-FI cells measured after 8 days; format: functional, cell-based; details: 192 h
SU-DHL-5 = experiment: Cytotoxicity against human SU-DHL-5 cells measured after 8 days; format: functional, cell-based; details: SU-DHL-5, 192 h
[17] = Cytotoxicity against human UM-RC-6 cells measured after 8 days; format: functional, cell-based; details: UM-RC-6, 192 h
[18] = Cytotoxicity against human COLO 858 cells measured after 8 days; format: functional, cell-based; details: COLO 858, 192 h
[19] = Cytotoxicity against human PK-1 cells measured after 8 days; format: functional, cell-based; details: PK-1, 192 h
KMS-11 = experiment: Cytotoxicity against human KMS-11 cells measured after 8 days; format: functional, cell-based; details: KMS-11, 192 h
SISO = experiment: Cytotoxicity against human SISO cells measured after 8 days; format: functional, cell-based; details: 192 h
SW982 = experiment: Cytotoxicity against human SW982 cells measured after 8 days; format: functional, cell-based; details: SW982, 192 h
Jurkat = experiment: Cytotoxicity against human Jurkat cells measured after 8 days; format: functional, cell-based; details: 192 h
[20] = Cytotoxicity against human NCE-G 118 cells measured after 8 days; format: functional, cell-based; details: NCE-G 118, 192 h
PANC-1 = experiment: Cytotoxicity against human PANC-1 cells measured after 8 days; format: functional, cell-based; details: PANC-1, 192 h
[21] = Cytotoxicity against human NCE-G 142 cells measured after 8 days; format: functional, cell-based; details: NCE-G 142, 192 h
AN3-CA = experiment: Cytotoxicity against human AN3-CA cells measured after 8 days; format: functional, cell-based; details: 192 h
[22] = Cytotoxicity against human Ri-1 cells measured after 8 days; format: functional, cell-based; details: Ri-1, 192 h
BaF3 = experiment: Cytotoxicity against mouse BaF3 cells measured after 8 days; format: functional, cell-based; details: BaF3, 192 h
DOV13 = experiment: Cytotoxicity against human DOV13 cells measured after 8 days; format: functional, cell-based; details: DOV13, 192 h
[23] = Cytotoxicity against human NCI-H2461 cells measured after 8 days; format: functional, cell-based; details: NCI-H2461, 192 h
SK-N-DZ = experiment: Cytotoxicity against human SK-N-DZ cells measured after 8 days; format: functional, cell-based; details: 192 h
[24] = Cytotoxicity against human NCE-G 44 cells measured after 8 days; format: functional, cell-based; details: NCE-G 44, 192 h

Sequence of Serine/threonine-protein kinase PLK1 (Homo sapiens) (P53350 whole entry): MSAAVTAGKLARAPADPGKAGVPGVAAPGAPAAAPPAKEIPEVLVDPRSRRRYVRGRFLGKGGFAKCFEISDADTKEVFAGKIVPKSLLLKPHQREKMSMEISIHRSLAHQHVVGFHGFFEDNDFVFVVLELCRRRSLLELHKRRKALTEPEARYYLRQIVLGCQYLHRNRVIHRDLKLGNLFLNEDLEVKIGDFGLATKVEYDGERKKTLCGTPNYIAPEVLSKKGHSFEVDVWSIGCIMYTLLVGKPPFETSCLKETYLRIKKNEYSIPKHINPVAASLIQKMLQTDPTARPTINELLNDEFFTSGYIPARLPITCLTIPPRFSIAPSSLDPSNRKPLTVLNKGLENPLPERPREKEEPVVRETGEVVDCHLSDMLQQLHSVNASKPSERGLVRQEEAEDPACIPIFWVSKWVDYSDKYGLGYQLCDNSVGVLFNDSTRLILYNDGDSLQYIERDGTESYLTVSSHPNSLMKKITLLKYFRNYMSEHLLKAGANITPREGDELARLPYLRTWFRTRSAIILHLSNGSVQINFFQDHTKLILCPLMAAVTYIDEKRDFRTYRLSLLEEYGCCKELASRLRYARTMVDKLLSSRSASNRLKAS

## C/C=C/Cn1cc(-c2ccc(C(C)(C)O)cc2OC)c2cc[nH]c2c1=O
COLO-680N
  IC50: 20 µM
SNU-387
  IC50: 20 µM
[1]
  IC50: 10.7 µM
[2]
  IC50: 20 µM
[3]
  IC50: 20 µM
MC-38
  IC50: 20 µM
Ca-Ski
  IC50: 20 µM
[4]
  IC50: 20 µM
JIYOYE
  IC50: 13.5 µM
SK-N-AS
  IC50: 20 µM
[5]
  IC50: 20 µM
[6]
  IC50: 20 µM
[7]
  IC50: 20 µM
[8]
  IC50: 20 µM
CAPAN-1
  IC50: 20 µM
CGTH-W-1
  IC50: 20 µM
[9]
  IC50: 20 µM
SK-N-SH
  IC50: 20 µM
SNU-16
  IC50: 20 µM
CHL-1
  IC50: 15.2 µM
OVCAR-4
  IC50: 20 µM
OCI-Ly10
  IC50: 20 µM
COR-L279
  IC50: 20 µM
SNU-423
  IC50: 20 µM
EFM-19
  IC50: 20 µM
OVCAR-8
  IC50: 20 µM
C-33-A
  IC50: 20 µM
NALM-6
  IC50: 20 µM
B16-F1
  IC50: 20 µM
[10]
  IC50: 20 µM
NCI-H716
  IC50: 20 µM
GI-1
  IC50: 20 µM
[11]
  IC50: 20 µM
[12]
  IC50: 20 µM
RMG-I
  IC50: 20 µM
BFTC-909
  IC50: 20 µM
[13]
  inhibition: 1%
[14]
  IC50: 13.9 µM
RCM-1
  IC50: 20 µM
SW626
  IC50: 20 µM
LN-229
  IC50: 20 µM
[15]
  IC50: 20 µM
[16]
  IC50: 20 µM
SK-N-FI
  IC50: 20 µM
SU-DHL-5
  IC50: 10.3 µM
[17]
  IC50: 20 µM
[18]
  IC50: 20 µM
[19]
  IC50: 20 µM
KMS-11
  IC50: 9.13 µM
SISO
  IC50: 20 µM
SW982
  IC50: 20 µM
Jurkat
  IC50: 14.8 µM
[20]
  IC50: 20 µM
PANC-1
  IC50: 20 µM
[21]
  IC50: 20 µM
AN3-CA
  IC50: 20 µM
[22]
  IC50: 20 µM
BaF3
  IC50: 20 µM
DOV13
  IC50: 20 µM
[23]
  IC50: 20 µM
SK-N-DZ
  IC50: 18.6 µM
[24]
  IC50: 20 µM

## C/C=C/Cn1cc(-c2ccc(C(=O)N3CCOCC3)cc2)c2cc[nH]c2c1=O
COLO-680N
  IC50: 20 µM
SNU-387
  IC50: 20 µM
[1]
  IC50: 11.6 µM
[2]
  IC50: 20 µM
[3]
  IC50: 20 µM
MC-38
  IC50: 16.7 µM
Ca-Ski
  IC50: 20 µM
[4]
  IC50: 20 µM
JIYOYE
  IC50: 2.85 µM
SK-N-AS
  IC50: 20 µM
[5]
  IC50: 20 µM
[6]
  IC50: 20 µM
[7]
  IC50: 20 µM
[8]
  IC50: 12.4 µM
CAPAN-1
  IC50: 20 µM
CGTH-W-1
  IC50: 20 µM
[9]
  IC50: 20 µM
SK-N-SH
  IC50: 20 µM
SNU-16
  IC50: 20 µM
CHL-1
  IC50: 15.2 µM
OVCAR-4
  IC50: 20 µM
OCI-Ly10
  IC50: 20 µM
COR-L279
  IC50: 20 µM
SNU-423
  IC50: 20 µM
EFM-19
  IC50: 20 µM
OVCAR-8
  IC50: 20 µM
C-33-A
  IC50: 20 µM
NALM-6
  IC50: 18.8 µM
B16-F1
  IC50: 13.5 µM
[10]
  IC50: 20 µM
NCI-H716
  IC50: 20 µM
GI-1
  IC50: 20 µM
[11]
  IC50: 20 µM
[12]
  IC50: 20 µM
RMG-I
  IC50: 19.4 µM
BFTC-909
  IC50: 20 µM
[13]
  inhibition: 0.9%
[14]
  IC50: 11.1 µM
RCM-1
  IC50: 20 µM
SW626
  IC50: 20 µM
LN-229
  IC50: 20 µM
[15]
  IC50: 20 µM
[16]
  IC50: 20 µM
SK-N-FI
  IC50: 20 µM
SU-DHL-5
  IC50: 14.8 µM
[17]
  IC50: 20 µM
[18]
  IC50: 20 µM
[19]
  IC50: 20 µM
KMS-11
  IC50: 12.4 µM
SISO
  IC50: 20 µM
SW982
  IC50: 20 µM
Jurkat
  IC50: 20 µM
[20]
  IC50: 20 µM
PANC-1
  IC50: 20 µM
[21]
  IC50: 20 µM
AN3-CA
  IC50: 20 µM
[22]
  IC50: 20 µM
BaF3
  IC50: 20 µM
DOV13
  IC50: 20 µM
[23]
  IC50: 20 µM
SK-N-DZ
  IC50: 20 µM
[24]
  IC50: 20 µM
